MIC data for three compounds are collected here from patent publication US20200061047A1, “NEW USE OF RIFAMYCIN-QUINOLIZIDONE DUAL-ACTION MOLECULE” (TenNor Therapeutics Limited, priority 2017, published 2020).

Holding throughout (assay type): cell-based
For assay [1], the system named is Bifidobacterium infantis subsp. Infantis ATCC 15702. Put plainly: MIC, agar dilution drug sensitivity test. Conditions: ATCC15702, Table 1.
Assay [2] relates to Bacteroides bifidum ATCC 1569. Kind of assay: MIC, agar dilution drug sensitivity test. The conditions noted are these: ATCC1569, Table 1. In general terms: In agar dilution, organisms are placed on agar that contains the substance at set levels.
Assay [3] relates to Clostridium difficile ATCC 700057. Put plainly: MIC, agar dilution drug sensitivity test. The conditions noted are these: Clostridioides difficile, ATCC700057.
The test system of assay [4] is Clostridium perfringens ATCC 13124. Put plainly: microbe, parasite or virus in culture. The conditions noted are these: ATCC13124.
For assay [5], the system named is Eggerthella lenta ATCC 43055. Kind of assay: MIC, agar dilution drug sensitivity test. The conditions noted are these: ATCC43055, Table 1.
The subject of assay [6] is Fusobacterium necrophorum ATCC 25286. Kind of assay: MIC, agar dilution drug sensitivity test. Conditions: ATCC25286, Table 1.
Assay [7] has as its system Peptostreptococcus prevotii ATCC 9321. Kind of assay: MIC, agar dilution drug sensitivity test. The conditions noted are these: Anaerococcus prevotii, ATCC9321, Table 1.
Assay [8] has as its system Bordetella avium ATCC 6945. Kind of assay: MIC, agar dilution drug sensitivity test.
Assay [9] relates to Serratia marcescens ATCC 43862. Kind of assay: MIC, agar dilution drug sensitivity test.
Assay [10] relates to Proteus vulgaris ATCC 1331. Kind of assay: MIC, agar dilution drug sensitivity test.
The test system of assay [11] is Enterobacter aerogenes ATCC 13048. Kind of assay: MIC, agar dilution drug sensitivity test.
The subject of assay [12] is Haemophilus influenzae ATCC 49247. Kind of assay: MIC, microscale broth dilution drug sensitivity test. As to the method: (§1) In this embodiment, compound I-rifamycin-quinolizidone dual-action molecule is used in a drug sensitivity test on pathogenic bacteria associated with hepatic encephalopathy, the pathogenic bacteria including the above ammonia-producing bacteria. Except that Haemophilus is tested using the microscale broth dilution method, all the other bacteria are tested using the agar dilution method consistent with that in the Guideline of the Clinical and Laboratory Standards Institute (CLSI; 1-3). All the other drug susceptibility tests are performed under anaerobic conditions except that some selective isolates are tested under both aerobic and anaerobic conditions. Control compounds include metronidazole, rifampicin, clindamycin (under anaerobic conditions) and ciprofloxacin (under aerobic and anaerobic conditions). The tested clinical isolates may be reference strains obtained from American Type Culture Collection, ATCC, Manassas, Va. After being received, the strains are respectively inoculated on appropriate agar plates and placed under optimized conditions for growth. The growing strains are cloned in the broth containing cryoprotectant to prepare bacterial suspensions, and the bacterial suspensions are subpackaged and then stored in freezing at −80° C. Before test, the frozen bacteria are inoculated into appropriate agar dishes and cultured for growth. Anaerobic bacteria grow for 48 hours at 35° C. in a Bactron II oxygen-free cabinet (Shel Lab, Cornelius, Oreg.) before test. Haemophilus Test Medium (HTM, Teknova, Hollister, Calif.; Art. No.: 895120) is used to perform drug sensitivity test on Hemophilus using the microscale broth dilution method under aerobic and anaerobic conditions. Preparation and storage of all the above broths are performed in accordance with CLSI (1-3).
A general note: In broth dilution the organism is exposed to a series of concentrations in liquid medium.

In assay [13] the test system is Haemophilus parainfluenzae ATCC 49247. The assay is described as above. The conditions noted are these: ATCC49247. As to the method: as §1
Assay [14] deals with Streptococcus parasanguinis MMX 5671. Kind of assay: MIC, agar dilution drug sensitivity test.
For assay [15], the system named is Streptococcus salivarius ATCC 25975. Put plainly: MIC, agar dilution drug sensitivity test.
Assay [16] concerns Streptococcus pneumoniae ATCC 49619. Put plainly: MIC, agar dilution drug sensitivity test.
Assay [17] has as its system Actinomyces naeslundii JMI 534283. Kind of assay: MIC, agar dilution drug sensitivity test. The conditions noted are these: JMI534283, Aerobic.
The test system of assay [18] is Alcaligenes faecalis JMI 940880. Put plainly: MIC, agar dilution drug sensitivity test. Conditions: JMI940880, Aerobic.
Assay [19] relates to Bacteroides vulgatus JMI 927011. Kind of assay: MIC, agar dilution drug sensitivity test. Conditions: Phocaeicola vulgatus, JMI927011.
Assay [20] relates to Corynebacterium urealyticum JMI 2015_30. Put plainly: MIC, agar dilution drug sensitivity test. Conditions: Aerobic.
The test system of assay [21] is Staphylococcus saprophyticus JMI 2016_703. Kind of assay: MIC, agar dilution drug sensitivity test. Conditions: Aerobic.
Assay [22] deals with Escherichia coli ATCC 25922. Put plainly: MIC, agar dilution drug sensitivity test. The conditions noted are these: ATCC25922, Table 1.
In assay [23] the test system is Helicobacter pylori ATCC 700824. Kind of assay: MIC, agar dilution drug sensitivity test. Conditions: ATCC700824, Table 1.
Assay [24] relates to Lactobacillus salivarius JMI 941623. Put plainly: MIC, agar dilution drug sensitivity test. The conditions noted are these: Ligilactobacillus salivarius, JMI941623, Table 1.
Assay [25] relates to Klebsiella oxytoca JMI 933995. Put plainly: MIC, agar dilution drug sensitivity test. Conditions: JMI933995, Table 1.
Assay [26] concerns Morganella morganii MMX 6123. Put plainly: MIC, agar dilution drug sensitivity test. The conditions noted are these: MMX6123, Table 1.
Assay [27] relates to Proteus mirabilis JMI 933599. Put plainly: MIC, agar dilution drug sensitivity test. Conditions: JMI933599, Table 1.
In assay [28] the test system is Proteus vulgaris MMX 6454. Put plainly: MIC, agar dilution drug sensitivity test. Conditions: MMX6454, Table 1.
Assay [29] concerns Salmonella spp ATCC 35987. Put plainly: MIC, agar dilution drug sensitivity test. The conditions noted are these: ATCC35987, Table 1. As to the method: In this embodiment, compound I-rifamycin-quinolizidone dual-action molecule is used in a drug sensitivity test on pathogenic bacteria associated with hepatic encephalopathy, the pathogenic bacteria including the above ammonia-producing bacteria. Except that Haemophilus is tested using the microscale broth dilution method, all the other bacteria are tested using the agar dilution method consistent with that in the Guideline of the Clinical and Laboratory Standards Institute (CLSI; 1-3). All the other drug susceptibility tests are performed under anaerobic conditions except that some selective isolates are tested under both aerobic and anaerobic conditions. Control compounds include metronidazole, rifampicin, clindamycin (under anaerobic conditions) and ciprofloxacin (under aerobic and anaerobic conditions).
The tested clinical isolates may be reference strains obtained from American Type Culture Collection, ATCC, Manassas, Va. After being received, the strains are respectively inoculated on appropriate agar plates and placed under optimized conditions for growth. The growing strains are cloned in the broth containing cryoprotectant to prepare bacterial suspensions, and the bacterial suspensions are subpackaged and then stored in freezing at −80° C. Before test, the frozen bacteria are inoculated into appropriate agar dishes and cultured for growth. Anaerobic bacteria grow for 48 hours at 35° C. in a Bactron II oxygen-free cabinet (Shel Lab, Cornelius, Oreg.) before test. […]
The Minimum Inhibitory Concentration (MIC) is determined using the agar dilution method.
The MIC values of all microorganisms except Haemophilus are determined using the agar dilution method in the CLSI (1-2). […] After culturing, the MIC is determined in accordance with the CLSI guideline (1-2).

For assay [30], the system named is Yersinia enterocolitica ATCC 23715. Put plainly: MIC, agar dilution drug sensitivity test. The conditions noted are these: ATCC23715, Table 1.
The mark [31] stands for this setting: ATCC49247, Haemophilus influenzae ATCC 49247, Aerobic.
The mark [32] stands for this setting: ATCC49247, Haemophilus influenzae ATCC 49247, Anaerobic.

In brackets after ≈: the same amount, converted by molar mass. Read-outs that look alike come from different tables or passages of the source. Bounds are passed on as bounds.

As to `Cc1ncc([N+](=O)[O-])n1CCO` [Metronidazole, metronidazole], the MIC in [1] came to 16 µg/mL (≈ 93.5 µM); in assay [2] it was 8 µg/mL (≈ 46.7 µM); in assay [3], 0.5 µg/mL (≈ 2.92 µM); in assay [4], 2 µg/mL (≈ 11.7 µM); in [5], 1 µg/mL (≈ 5.84 µM); in assay [6], 0.12 µg/mL (≈ 0.701 µM). The MIC in assay [7] is 256 µg/mL (≈ 1500 µM); in assay [8] (Bordetella avium ATCC 6945, Anaerobic), over 256 µg/mL; in [8] (Bordetella avium, ATCC6945), over 256 µg/mL; in assay [9] (Serratia marcescens ATCC 43862, Anaerobic), over 256 µg/mL; in assay [9] (Serratia marcescens, ATCC43862), over 256 µg/mL; in [10] (Proteus vulgaris ATCC 1331, Anaerobic) it was over 256 µg/mL. Besides, the MIC in [10] (Proteus vulgaris, ATCC1331) is over 256 µg/mL; in assay [11] (Enterobacter aerogenes ATCC 13048, Anaerobic) it was over 256 µg/mL; in [11] (Klebsiella aerogenes, ATCC13048), over 256 µg/mL; in assay [12] (setting [31]) it was 64 µg/mL (≈ 374 µM); in [12] (setting [32]), 64 µg/mL (≈ 374 µM); in assay [13] (Haemophilus parainfluenzae) it was 128 µg/mL (≈ 748 µM). The MIC in assay [14] (Streptococcus parasanguinis MMX 5671, Anaerobic) was over 256 µg/mL; in assay [14] (Streptococcus parasanguinis, MMX5671), over 256 µg/mL; in assay [15] (Streptococcus salivarius ATCC 25975, Anaerobic), over 256 µg/mL; in assay [15] (Streptococcus salivarius, ATCC25975), over 256 µg/mL; in [16] (ATCC49619, Streptococcus pneumoniae ATCC 49619, Aerobic) it was over 256 µg/mL; in [16] (ATCC49619, Streptococcus pneumoniae ATCC 49619, Anaerobic), 128 µg/mL (≈ 748 µM).

For the compound `CO[C@H]1/C=C/O[C@@]2(C)Oc3c(C)c(O)c4c(O)c(c(/C=N/N5CCN(C)CC5)c(O)c4c3C2=O)NC(=O)/C(C)=C\C=C\[C@H](C)[C@H](O)[C@@H](C)[C@@H](O)[C@@H](C)[C@H](OC(C)=O)[C@@H]1C` [Rifampicin, rifampicin], the MIC was under 0.002 µg/mL in assay [17]; 16 µg/mL (≈ 19.4 µM) in assay [18]; 0.06 µg/mL (≈ 0.0729 µM) in [19]; 16 µg/mL (≈ 19.4 µM) in [8] (Bordetella avium, ATCC6945, Bordetella avium ATCC 6945, Aerobic, read-out: MIC); 64 µg/mL (≈ 77.8 µM) in assay [8] (Bordetella avium, ATCC6945, Bordetella avium ATCC 6945, Anaerobic, read-out: MIC); 0.004 µg/mL (≈ 0.00486 µM) in assay [20]. The MIC came out at 64 µg/mL (≈ 77.8 µM) in assay [9] (Serratia marcescens, ATCC43862, Serratia marcescens ATCC 43862, Aerobic, read-out: MIC); 64 µg/mL (≈ 77.8 µM) in assay [9] (Serratia marcescens, ATCC43862, Serratia marcescens ATCC 43862, Anaerobic, read-out: MIC); 16 µg/mL (≈ 19.4 µM) in assay [10] (Proteus vulgaris, ATCC1331, Proteus vulgaris ATCC 1331, Aerobic, read-out: MIC); 8 µg/mL (≈ 9.72 µM) in assay [10] (Proteus vulgaris, ATCC1331, Proteus vulgaris ATCC 1331, Anaerobic, read-out: MIC); 64 µg/mL (≈ 77.8 µM) in [11] (Klebsiella aerogenes, ATCC13048, Enterobacter aerogenes ATCC 13048, Aerobic, read-out: MIC); 64 µg/mL (≈ 77.8 µM) in assay [11] (Klebsiella aerogenes, ATCC13048, Enterobacter aerogenes ATCC 13048, Anaerobic, read-out: MIC). Also, the MIC in assay [12] (setting [31]) is 0.25 to 1 µg/mL (≈ 0.304 to 1.22 µM); in [12] (setting [32]) it was 0.25 µg/mL (≈ 0.304 µM); in assay [13] (Haemophilus parainfluenzae ATCC 49247, Aerobic, read-out: MIC), 0.5 µg/mL (≈ 0.608 µM); in [21] it was 1 µg/mL (≈ 1.22 µM); in [14] (Streptococcus parasanguinis, MMX5671, Streptococcus parasanguinis MMX 5671, Aerobic, read-out: MIC) it was 0.03 µg/mL (≈ 0.0365 µM); in [14] (Streptococcus parasanguinis, MMX5671, Streptococcus parasanguinis MMX 5671, Anaerobic, read-out: MIC) it was 16 µg/mL (≈ 19.4 µM). Besides, the MIC in [15] (Streptococcus salivarius, ATCC25975, Streptococcus salivarius ATCC 25975, Aerobic, read-out: MIC) came to 0.03 µg/mL (≈ 0.0365 µM); in assay [15] (Streptococcus salivarius, ATCC25975, Streptococcus salivarius ATCC 25975, Anaerobic, read-out: MIC), 32 µg/mL (≈ 38.9 µM); in assay [16] (ATCC49619, Streptococcus pneumoniae ATCC 49619, Aerobic, read-out: MIC) it was 0.03 µg/mL (≈ 0.0365 µM); in [16] (ATCC49619, Streptococcus pneumoniae ATCC 49619, Anaerobic, read-out: MIC), 0.12 µg/mL (≈ 0.146 µM).

Turning to `CO[C@H]1/C=C/O[C@@]2(C)Oc3c(C)c(O)c4c(O)c(c5c(nc6cc(C)ccn65)c4c3C2=O)NC(=O)/C(C)=C\C=C\[C@H](C)[C@H](O)[C@@H](C)[C@@H](O)[C@@H](C)[C@H](OC(C)=O)[C@@H]1C` [Rifaximin, rifaximin], the MIC in assay [1] was determined as 0.25 µg/mL (≈ 0.318 µM); in assay [2], 0.5 µg/mL (≈ 0.636 µM); in [3], 0.004 µg/mL (≈ 0.00509 µM); in [4], 0.12 µg/mL (≈ 0.153 µM); in assay [5], 0.12 µg/mL (≈ 0.153 µM); in assay [6] it was 16 µg/mL (≈ 20.4 µM). Moreover, the MIC is 8 µg/mL (≈ 10.2 µM) in [22]; 2 µg/mL (≈ 2.54 µM) in [23]; 1 µg/mL (≈ 1.27 µM) in assay [24]; 0.03 µg/mL (≈ 0.0382 µM) in assay [7]; 32 µg/mL (≈ 40.7 µM) in assay [25]; 16 µg/mL (≈ 20.4 µM) in assay [26]. In addition, the MIC in [27] is 8 µg/mL (≈ 10.2 µM); in assay [28] it was 4 µg/mL (≈ 5.09 µM); in assay [29], 16 µg/mL (≈ 20.4 µM); in [30] it was 8 µg/mL (≈ 10.2 µM).
